Structures are written as SMILES. Where a chain is given by its changes, count along the chain named.

One assay has as its target T1, IDH2 R172K (Homo sapiens, UniProt P48735, R172K).
T1 sequence (P48735 40-452 R172K): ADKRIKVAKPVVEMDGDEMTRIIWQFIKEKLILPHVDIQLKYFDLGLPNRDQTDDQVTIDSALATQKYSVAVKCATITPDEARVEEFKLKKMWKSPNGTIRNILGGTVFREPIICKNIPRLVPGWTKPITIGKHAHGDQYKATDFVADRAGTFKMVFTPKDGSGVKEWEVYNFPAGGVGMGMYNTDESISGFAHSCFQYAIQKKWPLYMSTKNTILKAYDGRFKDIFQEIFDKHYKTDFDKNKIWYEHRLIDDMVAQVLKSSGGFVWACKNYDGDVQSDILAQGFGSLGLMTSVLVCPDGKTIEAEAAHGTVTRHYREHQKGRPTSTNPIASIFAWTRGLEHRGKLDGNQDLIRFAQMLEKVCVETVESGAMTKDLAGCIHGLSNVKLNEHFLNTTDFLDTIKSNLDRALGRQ
Nature of the assay: IDH2 R172K enzymatic assay (NADPH cofactor depletion, diaphorase/resazurin readout). The assay is classed as biochemical. The conditions noted are these: read-out: Enz R172K. A digest of the protocol: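 Compound was preincubated with IDH2 R172K for 1 h at room temperature, then the reaction was started with substrate mix containing 50 μM NADPH and 6.3 mM α-KG. After another 1 h at room temperature, stop mix with diaphorase and resazurin consumed the remaining NADPH, and resorufin fluorescence was read.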
(In general: The colour change of resazurin is a common sign of viable cells or microbes.)

The target of another assay is T2, IDH2 R140Q (Homo sapiens, UniProt P48735, R140Q).
T2 sequence (P48735 40-452 R140Q): T1 sequence (P48735 40-452 R172K) with R101Q, K133R
As to the kind of experiment: IDH2 R140Q enzymatic assay (cofactor depletion, similar format). The assay is classed as biochemical. The conditions noted are these: read-out: Enz R140Q.

Assay [1] deals with U87MG pLVX-IDH2 R140Q-neo cells. Nature of the assay: U87MG pLVX-IDH2 R140Q-neo cell based assay, 2-HG in media by LC-MS at 48 hours. The conditions noted are these: Homo sapiens, U-87 MG. In a few lines:
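U87MG cells stably expressing IDH2 R140Q were seeded overnight, then exposed to compound at 0.2% final DMSO at 37 °C, 5% CO2. 2-HG in the medium was quantified by LC-MS at 48 h. Growth inhibition was read by CellTiter-Glo luminescence at 72 h.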

With `CC(C)(C)COC(=O)Nc1nc(Nc2ccccc2)nc(-c2ccccc2)n1` [Compound 208, Neopentyl 4-phenyl-6-(phenylamino)-1,3,5-triazin-2-ylcarbamate], the results for the IC50 (at IDH2 R172K; on IDH2 R140Q; in assay [1]) were 0.1 to 1 µM, less than 0.1 µM and 0.1 to 1 µM, respectively.

Take `CCC(=O)Nc1nc(Nc2ccccc2)nc(-c2ccccc2)n1` [Compound 209, N-(4-phenyl-6-(phenylamino)-1,3,5-triazin-2-yl)propionamide]: the figures for the IC50 (on IDH2 R172K; on IDH2 R140Q; in assay [1]) were 0.1 to 1 µM, less than 0.1 µM and 0.1 to 1 µM, respectively.

As for `CC(C)Nc1nc(Nc2cncc(C#N)c2)nc(-c2ccccc2)n1` [Compound 210, 5-(4-(isopropylamino)-6-phenyl-1,3,5-triazin-2-ylamino)nicotinonitrile], the results for the IC50 (on IDH2 R172K; at IDH2 R140Q; in assay [1]) were 0.1 to 1 µM, less than 0.1 µM and less than 0.1 µM, respectively.

For `CCCCNc1nc(Nc2ccncc2)nc(-c2ccccc2)n1` [Compound 211, N^2-butyl-6-phenyl-N^4-(pyridin-4-yl)-1,3,5-triazine-2,4-diamine], the IC50 was 0.1 to 1 µM on IDH2 R172K, less than 0.1 µM at IDH2 R140Q and 0.1 to 1 µM in assay [1].

Take `CC(C)CCNc1nc(Nc2ccncc2)nc(-c2ccccc2)n1` [Compound 212, N^2-isopentyl-6-phenyl-N^4-(pyridin-4-yl)-1,3,5-triazine-2,4-diamine]: the results for the IC50 (at IDH2 R172K; at IDH2 R140Q; in assay [1]) were 0.1 to 1 µM, less than 0.1 µM and less than 0.1 µM, respectively.

Regarding `CC(C)C(C)Nc1nc(Nc2ccncc2)nc(-c2ccccc2)n1` (stereo not drawn) [Compound 213, N^2-(3-methylbutan-2-yl)-6-phenyl-N^4-(pyridin-4-yl)-1,3,5-triazine-2,4-diamine], the IC50 on IDH2 R172K is 0.1 to 1 µM; at IDH2 R140Q, less than 0.1 µM; in assay [1] it was less than 0.1 µM.

Take `CC(C)Nc1nc(Nc2ccccc2)nc(-c2ccccn2)n1` [Compound 214, N-Isopropyl-N′-phenyl-6-pyridin-2-yl-[1,3,5]triazine-2,4-diamine]: the IC50 on IDH2 R172K is 0.1 to 1 µM; on IDH2 R140Q it was less than 0.1 µM; in assay [1], 0.1 to 1 µM.

`FC(F)(F)CNc1nc(Nc2ccncc2)nc(-c2ccccc2)n1` [Compound 215, 6-phenyl-N^2-(pyridin-4-yl)-N^4-(2,2,2-trifluoroethyl)-1,3,5-triazine-2,4-diamine]: the IC50 was 1 to 10 µM on IDH2 R172K, less than 0.1 µM on IDH2 R140Q and 0.1 to 1 µM in assay [1].

Consider `c1ccc(-c2nc(NCC3CC3)nc(Nc3ccncc3)n2)cc1` [Compound 216, N^2-(cyclopropylmethyl)-6-phenyl-N^4-(pyridin-4-yl)-1,3,5-triazine-2,4-diamine], for which the IC50 on IDH2 R172K is 0.1 to 1 µM; at IDH2 R140Q it was less than 0.1 µM; in assay [1], 0.1 to 1 µM.

In the case of `CC1(Nc2nc(Nc3ccncc3)nc(-c3ccccc3)n2)CC1` [Compound 218, N^2-(1-methylcyclopropyl)-6-phenyl-N^4-(pyridin-4-yl)-1,3,5-triazine-2,4-diamine], the IC50 at IDH2 R172K was 1 to 10 µM; on IDH2 R140Q, less than 0.1 µM; in assay [1] it was 0.1 to 1 µM.

For `CC1CC1Nc1nc(Nc2ccncc2)nc(-c2ccccc2)n1` (stereo not drawn) [Compound 219, N^2-(2-methylcyclopropyl)-6-phenyl-N^4-(pyridin-4-yl)-1,3,5-triazine-2,4-diamine], the IC50 on IDH2 R172K is 0.1 to 1 µM; at IDH2 R140Q, less than 0.1 µM; in assay [1] it was less than 0.1 µM.

In the case of `CCC(C)CNc1nc(Nc2ccncc2)nc(-c2ccccc2)n1` (stereo not drawn) [Compound 220, N^2-(2-methylbutyl)-6-phenyl-N^4-(pyridin-4-yl)-1,3,5-triazine-2,4-diamine], the IC50 was 0.1 to 1 µM at IDH2 R172K, less than 0.1 µM on IDH2 R140Q and less than 0.1 µM in assay [1].

As for `CC1(CNc2nc(Nc3ccncc3)nc(-c3ccccc3)n2)CCCO1` (stereo not drawn) [Compound 221, N^2-((2-methyltetrahydrofuran-2-yl)methyl)-6-phenyl-N^4-(pyridin-4-yl)-1,3,5-triazine-2,4-diamine], the IC50 on IDH2 R172K lay within 1 to 10 µM; on IDH2 R140Q it was 0.1 to 1 µM; in assay [1] it was 0.1 to 1 µM.

As to `CC(C)Nc1nc(Nc2ccnc(F)c2)nc(-c2ccccc2)n1` [Compound 223, N^2-(2-fluoropyridin-4-yl)-N^4-isopropyl-6-phenyl-1,3,5-triazine-2,4-diamine], the IC50 (at IDH2 R172K; on IDH2 R140Q; in assay [1]) was less than 0.1 µM throughout.

As to `CCNc1cc(Nc2nc(NC(C)C)nc(-c3ccccc3)n2)ccn1` [Compound 224, N^2-(2-(ethylamino)pyridin-4-yl)-N^4-isopropyl-6-phenyl-1,3,5-triazine-2,4-diamine], the IC50 on IDH2 R172K was 0.1 to 1 µM; at IDH2 R140Q, less than 0.1 µM; in assay [1], 0.1 to 1 µM.

In the case of `COCCNc1nc(Nc2ccccc2)nc(-c2ccccc2)n1` [Compound 225, N^2-(2-methoxyethyl)-N^4,6-diphenyl-1,3,5-triazine-2,4-diamine], the IC50 is 1 to 10 µM at IDH2 R172K, less than 0.1 µM at IDH2 R140Q and 0.1 to 1 µM in assay [1].

Regarding `CC(C)Nc1nc(Nc2ccncc2)nc(-c2ccccc2Cl)n1` [Compound 226, 6-(2-chlorophenyl)-N^2-isopropyl-N^4-(pyridin-4-yl)-1,3,5-triazine-2,4-diamine], the IC50 is 0.1 to 1 µM at IDH2 R172K, less than 0.1 µM at IDH2 R140Q and 0.1 to 1 µM in assay [1].

Consider `CC(C)Nc1nc(Nc2ccncc2)nc(-c2ccccc2F)n1` [Compound 227, 6-(2-fluorophenyl)-N^2-isopropyl-N^4-(pyridin-4-yl)-1,3,5-triazine-2,4-diamine], for which the IC50 on IDH2 R172K was 0.1 to 1 µM; on IDH2 R140Q, less than 0.1 µM; in assay [1], less than 0.1 µM.

For `CC(C)Nc1nc(Nc2ccccc2)nc(-c2cc(Cl)ccn2)n1` [Compound 228, 6-(4-chloropyridin-2-yl)-N^2-isopropyl-N^4-phenyl-1,3,5-triazine-2,4-diamine], the IC50 on IDH2 R172K was 0.1 to 1 µM; at IDH2 R140Q, less than 0.1 µM; in assay [1] it was 0.1 to 1 µM.

For the compound `CC(C)Nc1nc(Nc2ccccc2)nc(-c2cccc(Cl)n2)n1` [Compound 229, 6-(6-chloropyridin-2-yl)-N^2-isopropyl-N^4-phenyl-1,3,5-triazine-2,4-diamine], the IC50 (at IDH2 R172K; at IDH2 R140Q; in assay [1]) was less than 0.1 µM throughout.

Turning to `CC(C)Nc1nc(Nc2ccccc2)nc(-c2ncccc2Cl)n1` [Compound 230, 6-(3-chloropyridin-2-yl)-N^2-isopropyl-N^4-phenyl-1,3,5-triazine-2,4-diamine], the IC50 (at IDH2 R172K; at IDH2 R140Q; in assay [1]) was 0.1 to 1 µM throughout.

Turning to `O=C(Nc1nc(Nc2ccccc2)nc(-c2ccccc2)n1)OCC1CC1` [Compound 232, cyclopropylmethyl 4-phenyl-6-(phenylamino)-1,3,5-triazin-2-ylcarbamate], the IC50 is 0.1 to 1 µM on IDH2 R172K, less than 0.1 µM on IDH2 R140Q and 0.1 to 1 µM in assay [1].

As to `O=C(Nc1nc(Nc2ccccc2)nc(-c2ccccc2)n1)C1CC1` [Compound 233, N-(4-phenyl-6-(phenylamino)-1,3,5-triazin-2-yl)cyclopropanecarboxamide], the figures for the IC50 (at IDH2 R172K; on IDH2 R140Q; in assay [1]) were 0.1 to 1 µM, less than 0.1 µM and less than 0.1 µM, respectively.

The values above are taken from patent publication US9512107B2, “Therapeutically active compositions and their methods of use” (Agios Pharmaceuticals, Inc., priority 2012, dated 2016).
